Assay: mn = molality of the nth substance listed, in mol/kg
Settings: 100 kPa, Liquid; for speed of sound: Frequency=3 MHz, Sing-around technique in a fixed-path interferometer; for mass density: Vibrating tube method

O=C(N[C@H](CO)[C@H](O)c1ccc([N+](=O)[O-])cc1)C(Cl)Cl + O
Settings	mass density, 288.15 K [kg/m3]	mass density, 298.15 K [kg/m3]	mass density, 308.15 K [kg/m3]	mass density, 318.15 K [kg/m3]	speed of sound, 288.15 K [m/s]	speed of sound, 298.15 K [m/s]	speed of sound, 308.15 K [m/s]	speed of sound, 318.15 K [m/s]
m1 = 0.0005	999.273	997.209	994.205	990.372	1466.9	1496	1519.6	1536.2
m1 = 0.001	999.429	997.363	994.356	990.522	1467	1496.1	1519.7	1536.4
m1 = 0.002	999.643	997.576	994.56	990.713	1467.1	1496.2	1519.9	1536.5
m1 = 0.004	999.922	997.847	994.831	990.992	1467.5	1496.7	1520.2	1536.8

NCC(=O)NCC(=O)O [glycylglycine] + O
Settings	mass density, 288.15 K [kg/m3]	mass density, 298.15 K [kg/m3]	mass density, 308.15 K [kg/m3]	mass density, 318.15 K [kg/m3]	speed of sound, 288.15 K [m/s]	speed of sound, 298.15 K [m/s]	speed of sound, 308.15 K [m/s]	speed of sound, 318.15 K [m/s]
m1 = 0.01033	999.704	997.627	994.594	990.758	1467.7	1496.8	1520.3	1536.9
m1 = 0.02031	1000.23	998.133	995.135	991.281	1468.6	1497.7	1521.2	1537.7
m1 = 0.04035	1001.4	999.259	996.28	992.375	1470.5	1499.5	1522.8	1539.3
m1 = 0.06012	1002.5	1000.39	997.363	993.41	1472.4	1501.3	1524.4	1540.8
m1 = 0.0802	1003.7	1001.51	998.463	994.52	1474.3	1503.1	1526	1542.4
m1 = 0.1011	1004.84	1002.62	999.564	995.646	1476.3	1505	1527.7	1544
m1 = 0.1502	1007.57	1005.27	1002.18	998.186	1480.9	1509.4	1531.8	1547.9
m1 = 0.1995	1010.2	1007.94	1004.8	1000.72	1485.5	1513.8	1535.8	1551.8

NCC(=O)O [2-aminoacetic acid] + O
Settings	mass density, 288.15 K [kg/m3]	mass density, 298.15 K [kg/m3]	mass density, 308.15 K [kg/m3]	mass density, 318.15 K [kg/m3]	speed of sound, 288.15 K [m/s]	speed of sound, 298.15 K [m/s]	speed of sound, 308.15 K [m/s]	speed of sound, 318.15 K [m/s]
m1 = 0.01095	999.494	997.428	994.433	990.57	1467.3	1496.5	1520	1536.6
m1 = 0.02116	999.815	–	994.686	990.869	1467.9	1497	1520.6	1537.1
m1 = 0.04014	1000.41	998.287	995.236	991.411	1469	1498	1521.5	1538
m1 = 0.06033	1001.05	–	995.832	991.989	1470.1	1499	1522.5	1539
m1 = 0.08023	1001.7	999.548	–	–	1471.2	1500.1	1523.5	1540
m1 = 0.1006	1002.36	1000.17	997.123	993.251	1472.4	1501.2	1524.5	1540.9
m1 = 0.15	1003.96	1001.73	–	994.665	1475.2	1503.8	1527	1543.3
m1 = 0.2003	1005.57	1003.28	1000.2	996.211	1478	1506.4	1529.5	1545.7

From the NIST ThermoML archive (doi:10.1016/j.jct.2016.03.040)
